Key:
Assay type in all cases: in vivo
[1] = tested on: pest eggs of Tetranychus cinnabarinus; test: Effect on hatching of pest eggs of Tetranychus cinnabarinus, leaf disc method; conditions: for Hatching rate (%): 7 days after insecticide delivery; for inhibitory effect on the hatching of pest eggs of Tetranychus cinnabarinus (in words): 1 ppm
Procedure, shortened: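 Adult female mites laid eggs on 2.0 cm Vicia faba leaf discs for up to 36 h; discs with counted eggs were dipped 10 s in compound solution or water, then kept moist. Hatched eggs were counted 7 days after treatment and control effect was calculated by formula.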

[2] = tested on: eggs of Tetranychus urticae; test: Effect on hatching of eggs of Tetranychus urticae, leaf disc method; conditions: 5 ppm; for Hatching rate (%): 5 days after insecticide delivery
Procedure, shortened: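 Twenty adult female Tetranychus urticae mites were placed on 2.0 cm Vicia faba leaf discs over wetted filter paper in lidded dishes kept moist, and removed within 36 hours. Eggs on each disc were counted under a microscope. The egg-bearing discs were dipped for 10 seconds in a compound solution at 5 ppm or in clear water, then kept moist, and hatching was checked five days after treatment.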

[3] = tested on: eggs of Panonychus citri; test: Effect on hatching of eggs of Panonychus citri, leaf disc method; conditions: 1 ppm; for Hatching rate (%), Replicate 1 / Hatching rate (%), Replicate 2 / Hatching rate (%), Replicate 3 / Number of hatched larvae 5 days after insecticide delivery, Replicate 1 / Number of hatched larvae 5 days after insecticide delivery, Replicate 2 / Number of hatched larvae 5 days after insecticide delivery, Replicate 3: Panonychus citri eggs; for Hatching rate (%), Replicate 1 / Hatching rate (%), Replicate 2 / Hatching rate (%), Replicate 3: 5 days after delivery; for Number of hatched larvae 5 days after insecticide delivery, Replicate 1 / Number of hatched larvae 5 days after insecticide delivery, Replicate 2 / Number of hatched larvae 5 days after insecticide delivery, Replicate 3: leaf disc

| SMILES | Hatching rate (%) ([1]; 0.25 mg/L, Replicate 1) | Hatching rate (%) ([1]; 0.25 mg/L, Replicate 2) | Number of hatched larvae 7 days after insecticide delivery ([1]; 0.25 mg/L, Replicate 1) | Number of hatched larvae 7 days after insecticide delivery ([1]; 0.25 mg/L, Replicate 2) | Hatching rate (%) ([1]; 0.5 mg/L, Replicate 1) | Hatching rate (%) ([1]; 0.5 mg/L, Replicate 2) | Number of hatched larvae 7 days after insecticide delivery ([1]; 0.5 mg/L, Replicate 1) | Number of hatched larvae 7 days after insecticide delivery ([1]; 0.5 mg/L, Replicate 2) | Hatching rate (%) ([1]; 1 mg/L, Replicate 1) | Hatching rate (%) ([1]; 1 mg/L, Replicate 2) | Number of hatched larvae 7 days after insecticide delivery ([1]; 1 mg/L, Replicate 1) | Number of hatched larvae 7 days after insecticide delivery ([1]; 1 mg/L, Replicate 2) | Hatching rate (%) ([2]; Replicate 1) | Hatching rate (%) ([2]; Replicate 2) | Number of hatched larvae 5 days after insecticide delivery ([2]; Replicate 1) | Number of hatched larvae 5 days after insecticide delivery ([2]; Replicate 2) | Hatching rate (%), Replicate 1 [3] | Hatching rate (%), Replicate 2 [3] | Hatching rate (%), Replicate 3 [3] | Number of hatched larvae 5 days after insecticide delivery, Replicate 1 [3] | other results |
| --- | --- | --- | --- | --- | --- | --- | --- | --- | --- | --- | --- | --- | --- | --- | --- | --- | --- | --- | --- | --- | --- |
| CC(C)(COc1ccc(Cl)cc1Cl)OS(=O)OCCF (stereo not shown) [Compound R-10] | 73.21% | 74.03% | 15 | 20 | 42.67% | 41.94% | 28 | 36 | 8.11% | 6.25% | 68 | 60 | 18.06% | 16.13% | 13 | 15 | 9.65% | 9.78% | 10.37% | 11 | Number of hatched larvae 5 days after insecticide delivery, Replicate 2 [3]: 9; Number of hatched larvae 5 days after insecticide delivery, Replicate 3 [3]: 14 |
| CC(C)(COc1ccc(Cl)cc1Cl)OS(=O)OCCF (stereo not shown) [Compound S-10] | 39.51% | 41.79% | 49 | 39 | 4.62% | 3.39% | 62 | 57 | 0.00% | 0.00% | 78 | 84 | 0.00% | 0.00% | 0 | 0 | 0.00% | 0.00% | 0.00% | 0 | inhibitory effect on the hatching of pest eggs of Tetranychus cinnabarinus (in words) [1]: excellent inhibitory effects; inhibitory activity on the hatching of eggs of Tetranychus urticae (in words) [2]: strong inhibitory activities; inhibitory effect on the hatching of eggs of Panonychus citri (in words) [3]: good inhibitory effects; Number of hatched larvae 5 days after insecticide delivery, Replicate 2 [3]: 0; Number of hatched larvae 5 days after insecticide delivery, Replicate 3 [3]: 0 |
| CC(C)(COS(=O)OCCF)Oc1ccc(Cl)cc1Cl (stereo not shown) [R-10′] | 74.07% | 76.79% | 21 | 13 | 42.86% | 45.07% | 36 | 39 | 8.47% | 7.46% | 54 | 62 | 17.72% | 16.67% | 14 | 16 | 10.29% | 10.31% | 9.62% | 14 | Number of hatched larvae 5 days after insecticide delivery, Replicate 2 [3]: 10; Number of hatched larvae 5 days after insecticide delivery, Replicate 3 [3]: 10 |
| CC(C)(COS(=O)OCCF)Oc1ccc(Cl)cc1Cl (stereo not shown) [S-10′] | 42.11% | 43.77% | 44 | 37 | 7.95% | 6.12% | 81 | 46 | 0.00% | 0.00% | 59 | 84 | 0.00% | 0.00% | 0 | 0 | 0.00% | 0.00% | 0.00% | 0 | inhibitory effect on the hatching of pest eggs of Tetranychus cinnabarinus (in words) [1]: excellent inhibitory effects; inhibitory activity on the hatching of eggs of Tetranychus urticae (in words) [2]: strong inhibitory activities; inhibitory effect on the hatching of eggs of Panonychus citri (in words) [3]: good inhibitory effects; Number of hatched larvae 5 days after insecticide delivery, Replicate 2 [3]: 0; Number of hatched larvae 5 days after insecticide delivery, Replicate 3 [3]: 0 |
